Measured values from patent US10562900B2 (Shanghai Haihe Pharmaceutical Co., Ltd., priority 2014, dated 2020).

Key:
[1] = system: acute myelogenous leukemia cell strain KG1; assay: Growth inhibition of FGFR1-dependent KG1 cells (CCK-8); format: cell-based; conditions: Homo sapiens, KG-1, 72 h treatment
Procedure: The growth inhibition of the acute myelogenous leukemia cell strain KG1 (FGFR1-dependent tumor cell strain; the FGFR1 fusion protein in the cell was expressed in the cytoplasm; purchased from ATCC cell bank) by the compounds was detected with CCK-8 cell count kit (Dojindo). The specific steps are as follows: KG1 cells in logarithmic growth phase were seeded onto a 96-well culture plate in appropriate density, 90 ul per well. After overnight culture, different concentrations of compounds were added and the treatment continued for 72 h, and solvent control group (negative control) was set. After treatment for 72 h, the effect of the compounds on cell proliferation was observed by CCK-8 cell counting kit (Dojindo). 10 μL of CCK-8 reagent was added to each well. After incubated for 2-4 hours in a 37 □ incubator, read with SpectraMax 190 microplate reader at 450 nm wavelength. The inhibition rate (%) of the compounds on tumor cell growth was calculated using the following formula: Inhibition rate (%)=(OD negative control well-OD administered well)/OD negative control well×100%.

FGFR3 = FGFR3 (Homo sapiens (Human), UniProt P22607); assay: FGFR3 kinase activity at the molecular level (ELISA, Poly(Glu,Tyr) 4:1 substrate); format: biochemical; conditions: kinase domain recombinant protein, 5 μM ATP
Procedure: (§1) 100 μL/well of 2 mg/mL OPD developing solution (diluted with 0.1M citric acid-sodium citrate buffer containing 0.03% H2O2 (pH=5.4)), and reacted in dark for 1-10 minutes at 25° C.

FGFR1 = FGFR1 (Homo sapiens (Human), UniProt P11362); assay: FGFR1 kinase activity at the molecular level (ELISA, Poly(Glu,Tyr) 4:1 substrate); format: biochemical; conditions: kinase domain recombinant protein, 5 μM ATP
Procedure: as §1

FGFR2 = FGFR2 (Homo sapiens (Human), UniProt P21802); assay: FGFR2 kinase activity at the molecular level (ELISA, Poly(Glu,Tyr) 4:1 substrate); format: biochemical; conditions: kinase domain recombinant protein, 5 μM ATP
Procedure: as §1

Chain of FGFR3 (P22607 472-761): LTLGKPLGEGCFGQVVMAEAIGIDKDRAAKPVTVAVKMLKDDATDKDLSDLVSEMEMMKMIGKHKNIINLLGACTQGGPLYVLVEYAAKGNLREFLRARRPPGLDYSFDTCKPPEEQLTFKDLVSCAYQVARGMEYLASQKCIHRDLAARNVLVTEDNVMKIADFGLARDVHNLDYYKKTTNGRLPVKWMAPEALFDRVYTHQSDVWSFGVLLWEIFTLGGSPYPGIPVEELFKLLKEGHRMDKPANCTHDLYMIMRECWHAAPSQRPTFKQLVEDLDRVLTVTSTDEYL
Chain of FGFR1 (P11362 478-767): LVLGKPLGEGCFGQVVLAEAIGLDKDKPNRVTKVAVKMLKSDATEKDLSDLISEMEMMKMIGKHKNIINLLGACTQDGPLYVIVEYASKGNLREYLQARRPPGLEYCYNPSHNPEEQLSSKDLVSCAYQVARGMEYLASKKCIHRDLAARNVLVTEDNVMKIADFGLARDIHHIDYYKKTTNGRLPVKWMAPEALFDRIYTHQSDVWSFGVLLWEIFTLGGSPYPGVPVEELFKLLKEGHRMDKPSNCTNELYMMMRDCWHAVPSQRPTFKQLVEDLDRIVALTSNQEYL
Chain of FGFR2 (P21802 481-770): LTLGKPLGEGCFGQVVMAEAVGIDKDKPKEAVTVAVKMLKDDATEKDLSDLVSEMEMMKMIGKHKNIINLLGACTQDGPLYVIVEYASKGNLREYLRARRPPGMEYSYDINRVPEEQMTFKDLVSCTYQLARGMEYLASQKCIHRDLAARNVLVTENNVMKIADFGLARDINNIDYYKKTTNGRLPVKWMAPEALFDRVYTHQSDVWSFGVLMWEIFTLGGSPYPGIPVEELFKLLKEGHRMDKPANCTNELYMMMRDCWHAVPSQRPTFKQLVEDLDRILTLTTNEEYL

| Compound | IC50 [1] [nM] | IC50 (FGFR3) [nM] | IC50 (FGFR1) [nM] | IC50 (FGFR2) [nM] |
| --- | --- | --- | --- | --- |
| COc1cc(OC)c(Cl)c(-c2ccc3c(NC(=O)c4ccc(N5C[C@@H](C)N[C@@H](C)C5)cc4)n[nH]c3c2)c1Cl [Example 14] | < 200 |  |  |  |
| COc1cc(OC)c(Cl)c(-c2ccc3c(NC(=O)c4ccc(N5CCN(C)CC5)cc4)n[nH]c3c2)c1Cl [Example 15, N-(6-(2,6-dichloro-3,5-dimethoxyphenyl)-1H-indazole-3-yl)-4-(4-methylpiperazine-1-yl)benzamide] | < 200 | < 100 | < 100 | < 100 |
| COc1cc(OC)c(Cl)c(-c2ccc3c(NC(=O)c4ccc(CN5CCN(C)CC5)cc4)n[nH]c3c2)c1Cl [Example 16, N-(6-(2,6-dichloro-3,5-dimethoxyphenyl)-1H-indazole-3-yl)-4-((4-methylpiperazine-1-yl)methyl)benzamide] | 200 to 1000 | < 100 | < 100 | < 100 |
| COc1cc(OC)c(Cl)c(-c2ccc3c(NC(=O)c4ccc(N5CCOCC5)cc4)n[nH]c3c2)c1Cl [Example 17, N-(6-(2,6-dichloro-3,5-dimethoxyphenyl)-1H-indazole-3-yl)-4-morpholino benzamide] | 200 to 1000 | < 100 | < 100 | < 100 |
| CCN1CCN(c2ccc(C(=O)Nc3n[nH]c4cc(-c5c(Cl)c(OC)cc(OC)c5Cl)ccc34)cc2)CC1 [Example 18, N-(6-(2,6-dichloro-3,5-dimethoxyphenyl)-1H-indazole-3-yl)-4-(4-ethylpiperazine-1-yl)benzamide] | < 200 | < 100 | < 100 | < 100 |
| COc1cc(OC)c(Cl)c(-c2ccc3c(NC(=O)c4ccc(CN5CCN(C(C)=O)CC5)cc4)n[nH]c3c2)c1Cl [Example 19, 4-((4-acetyl-1-yl)methyl)-N-(6-(2,6-dichloro-3,5-dimethoxyphenyl)-1H-indazole-3-yl)benzamide] | 200 to 1000 | < 100 | < 100 | < 100 |
| COc1cc(OC)c(Cl)c(-c2ccc3c(NC(=O)c4ccc(N5CCN(C)CC5)cc4)n[nH]c3n2)c1Cl [Example 63, N-(6-(2,6-dichloro-3,5-dimethoxyphenyl)-1H-pyrazolo [3,4-b]pyridin-3-yl)-4-(4-methylpiperazine-1-yl)benzamide] |  | < 100 | < 100 | < 100 |
| CCN1CCN(c2ccc(C(=O)Nc3n[nH]c4nc(-c5c(Cl)c(OC)cc(OC)c5Cl)ccc34)cn2)CC1 [Example 86, N-(6-(2,6-dichloro-3,5-dimethoxyphenyl)-1H-pyrazolo [3,4-b]pyridin-3-yl)-6-(4-ethylpiperazine-1-yl)nicotinamide] |  |  | < 100 | < 100 |
| COc1cc(OC)c(Cl)c(-c2ccc3c(NC(=O)c4ccc(N5CCNC(C)(C)C5)nc4)n[nH]c3n2)c1Cl [Example 87, N-(6-(2,6-dichloro-3,5-dimethoxyphenyl)-1H-pyrazolo [3,4-b]pyridin-3-yl)-6-(3,3-dimethylpiperazine-1-yl)nicotinamide] |  |  | < 100 | < 100 |
| COc1cc(OC)c(Cl)c(-c2ccc3c(NC(=O)c4ccc(N5CCN(C6CC6)CC5)nc4)n[nH]c3n2)c1Cl [Example 88, 6-(4-cyclopropylpiperazine-1-yl)-N-(6-(2,6-dichloro-3,5-dimethoxyphenyl)-1H-pyrazolo [3,4-b]pyridin-3-yl)nicotinamide] |  |  | < 100 | < 100 |
| COc1cc(OC)c(Cl)c(-c2ccc3c(NC(=O)c4ccc(N5CCN(C6CC6)CC5)cc4)n[nH]c3n2)c1Cl [Example 89] |  |  | < 100 | < 100 |
| COc1cc(OC)c(Cl)c(-c2ccc3c(NC(=O)c4ccc(N5C[C@@H](C)N(C)[C@@H](C)C5)cc4)n[nH]c3n2)c1Cl [Example 90] |  |  | < 100 | < 100 |
| COc1cc(OC)c(Cl)c(-c2ccc3c(NC(=O)c4ccc(N5CCNC(C)(C)C5)c(F)c4)n[nH]c3n2)c1Cl [Example 91, N-(6-(2,6-dichloro-3,5-dimethoxyphenyl)-1H-pyrazolo [3,4-b]pyridin-3-yl)-4-(3,3-dimethylpiperazine-1-yl)-3-fluorobenzamide] |  |  | < 100 | < 100 |
| COc1cc(OC)c(Cl)c(-c2ccc3c(NC(=O)c4cnc(N5CCN(C)CC5)nc4)n[nH]c3n2)c1Cl [Example 92, N-(6-(2,6-dichloro-3,5-dimethoxyphenyl)-1H-pyrazolo [3,4-b]pyridin-3-yl)-2-(4-methylpiperazine-1-yl)pyrimidine-5-formamide] |  |  | < 100 | < 100 |
| COc1cc(OC)c(F)c(-c2ccc3c(NC(=O)c4ccc(N5CCCCC5)cc4)n[nH]c3c2)c1F [Example 93, N-(6-(2,6-difluoro-3,5-dimethoxyphenyl)-1H-indazole-3-yl)-4-(piperidine-1-yl)benzamide] |  |  | < 100 | < 100 |
| COc1cc(OC)c(F)c(-c2ccc3c(NC(=O)c4ccc(CN5CCN(C)CC5)cc4)n[nH]c3c2)c1F [Example 94, N-(6-(2,6-difluoro-3,5-dimethoxyphenyl)-1H-indazole-3-yl)-4-((4-methylpiperazine-1-yl)methyl)benzamide] |  |  | < 100 | < 100 |
| COc1cc(OC)c(F)c(-c2ccc3c(NC(=O)c4ccc(N5CCCN(C)CC5)cc4)n[nH]c3c2)c1F [Example 95, N-(6-(2,6-difluoro-3,5-dimethoxyphenyl)-1H-indazole-3-yl)-4-(4-methyl-1,4-diazepane-1-yl)benzamide] |  |  | < 100 | < 100 |
| COc1cc(OC)c(F)c(-c2ccc3c(NC(=O)c4cnc(N5CCN(C)CC5)nc4)n[nH]c3c2)c1F [Example 96, N-(6-(2,6-difluoro-3,5-dimethoxyphenyl)-1H-indazole-3-yl)-2-(4-methylpiperazine-1-yl) pyrimidine-5-formamide] |  |  | < 100 | < 100 |
| COc1cc(C(=O)Nc2n[nH]c3cc(-c4c(F)c(OC)cc(OC)c4F)ccc23)ccc1N1CCNC(C)(C)C1 [Example 97, N-(6-(2,6-difluoro-3,5-dimethoxyphenyl)-1H-indazole-3-yl)-4-(3,3-dimethylpiperazine-1-yl)-3-methoxybenzamide] |  |  | < 100 | < 100 |
| COc1cc(OC)c(F)c(-c2ccc3c(NC(=O)c4ccc(N5CCC(N(C)C)C5)cc4)n[nH]c3c2)c1F (centres unmarked) [Example 98, N-(6-(2,6-difluoro-3,5-dimethoxyphenyl)-1H-indazole-3-yl)-4-(3-(dimethylamino)pyrrolidine-1-yl)benzamide] |  |  | < 100 | < 100 |
| COc1cc(OC)c(Cl)c(-c2ccc3c(NC(=O)c4ccc(N5CC(C)(C)NC(C)(C)C5)cc4)n[nH]c3n2)c1Cl [Example 99] |  |  | < 100 | < 100 |
| COc1cc(OC)c(Cl)c(-c2ccc3c(NC(=O)c4ccc(N5CCC(N(C)C)C5)cc4)n[nH]c3n2)c1Cl (centres unmarked) [Example 100] |  |  | < 100 | < 100 |
| COc1cc(C(=O)Nc2n[nH]c3nc(-c4c(Cl)c(OC)cc(OC)c4Cl)ccc23)ccc1N1CCNC(C)(C)C1 [Example 101, N-(6-(2,6-dichloro-3,5-dimethoxyphenyl)-1H-pyrazolo [3,4-b]pyridin-3-yl)-4-(3,3-dimethylpiperazine-1-yl)-3-methoxybenzamide] |  |  | < 100 | < 100 |
